According to patent publication EP1368020B1, “METHOD FOR IDENTIFYING MAXI-K CHANNEL BLOCKERS” (priority 2001, dated 2002):

What was measured:
Format in all cases: cell-based
[1] = biological target: T1, maxi-K channel (alpha and beta1 subunits) in stably transfected HEK-293 cells (Homo sapiens, UniProt Q12791); experiment: FRET membrane potential assay (VIPR), HEK-293 cells stably transfected with alpha and beta1 subunits of the maxi-K channel
T1 construct: expressed in transfected cells
Method: Transfection of the alpha and beta1 subunits of the maxi-K channel in HEK-293 cells was carried out as follows: HEK-293 cells were plated in 100 mm tissue culture treated dishes at a density of 3x10^6 cells per dish, and a total of five dishes were prepared. Cells were grown in a medium consisting of Dulbecco's Modified Eagle Medium (DMEM) supplemented with 10% Fetal Bovine serum, 1X L-Glutamine, and 1X Penicillin/Streptomycin, at 37°C, 10% CO2. For transfection with Maxi-K hα (pCIneo) and Maxi-K hβ1 (pIRESpuro) DNAs, 150 µl FuGENE6™ was added dropwise into 10 ml of serum free/phenol-red free DMEM and allowed to incubate at room temperature for 5 minutes. Then, the FuGENE6™ solution was added dropwise to a DNA solution containing 25 µg of each plasmid DNA, and incubated at room temperature for 30 minutes. After the incubation period, 2 ml of the FuGENE6™/DNA solution was added dropwise to each plate of cells and the cells were allowed to grow two days under the same conditions as described above. At the end of the second day, cells were put under selection media which consisted of DMEM supplemented with both 600 µg/ml G418 and 0.75 µg/ml puromycin. Cells were grown until separate colonies were formed. Five colonies were collected and transferred to a 6 well tissue culture treated dish. A total of 75 colonies were collected. Cells were allowed to grow until a confluent monolayer was obtained. Cells were then tested for the presence of maxi-K channel alpha and beta 1 subunits using an assay that monitors binding of ^125I-iberiotoxin-D19Y/Y36F to the channel. Cells expressing ^125I-iberiotoxin-D19Y/Y36F binding activity were then evaluated in a functional assay that monitors the capability of maxi-K channels to control the membrane potential of transfected HEK-293 cells using fluorescence resonance energy transfer (FRET) ABS technology with a VIPR instrument. The colony giving the largest signal to noise ratio was subjected to limiting dilution. For this, cells were resuspended at approximately 5 cells/ml, and 200 µl were plated in individual wells in a 96 well tissue culture treated plate, to add ca. one cell per well. A total of two 96 well plates were made. When a confluent monolayer was formed, the cells were transferred to 6 well tissue culture treated plates. A total of 62 wells were transferred. When a confluent monolayer was obtained, cells were tested using the FRET-functional assay. […]
The plates are loaded into a voltage/ion probe reader (VIPR) instrument, and the fluorescence emission of both CC2DMPE and DiSBAC2(3) are recorded for 10 sec. At this point, 100 µl of high-potassium solution (mM): 140 KCl, 2 CaCl2, 1 MgCl2, 20 Hepes-KOH, pH 7.4, 10 glucose are added and the fluorescence emission of both dyes recorded for an additional 10 sec. […]

[2] = system: endogenous potassium conductance of HEK-293 cells; experiment: FRET membrane potential assay (VIPR), high-potassium addition to untransfected HEK-293 cells; details: Figure 1; for effect on the fluorescence signal caused by high-potassium addition: different/increasing concentrations of compound; for efficacy of Compound A or Compound B in the presence of Compound 1: selective maxi-K channel blocker Compound 1 present
Method: HEK-293 cells were plated on 96-well poly-D-lysine plates and incubated for about 16 to 24 hours at 37°C. The media was aspirated and the cells were washed once with D-PBS. Cells were incubated with 9 µM coumarin (CC2DMPE)-0.02% pluronic-127 in D-PBS for 30 minutes in the dark. Cells were washed twice with D-PBS, and incubated with 4.5 µM oxanol (DiSBAC2(3)) in the absence (Control) or presence of increasing concentrations of test compound, in the dark for 30 minutes. Plates were loaded onto a VIPR instrument and the fluorescence emission of both dyes was recorded for 10 seconds. A solution containing high-potassium was then added and the fluorescence emission of the dyes was recorded for another 10 seconds. The coumarin/oxanol ratio was calculated under both conditions. Before addition of high-potassium, this ratio was always normalized to 1.
The signal is not affected by the presence of different concentrations of the selective maxi-K channel blocker, Compound 1. […] A useful concentration range for these agents is 3-10 µM. Importantly, in the presence of the selective maxi-K channel blocker Compound 1, the efficacy of either Compound A or Compound B is unaffected.

[3] = biological target: T2, maxi-K channels transiently expressed in TsA-201 cells (Homo sapiens, UniProt Q12791); experiment: FRET membrane potential assay (VIPR), maxi-K channels transiently expressed in TsA-201 cells; details: 3 µM, Figure 2
T2 construct: expressed in transfected cells; host or cells: TsA-201 cells, transient transfection
T2 sequence (Q12791 whole entry): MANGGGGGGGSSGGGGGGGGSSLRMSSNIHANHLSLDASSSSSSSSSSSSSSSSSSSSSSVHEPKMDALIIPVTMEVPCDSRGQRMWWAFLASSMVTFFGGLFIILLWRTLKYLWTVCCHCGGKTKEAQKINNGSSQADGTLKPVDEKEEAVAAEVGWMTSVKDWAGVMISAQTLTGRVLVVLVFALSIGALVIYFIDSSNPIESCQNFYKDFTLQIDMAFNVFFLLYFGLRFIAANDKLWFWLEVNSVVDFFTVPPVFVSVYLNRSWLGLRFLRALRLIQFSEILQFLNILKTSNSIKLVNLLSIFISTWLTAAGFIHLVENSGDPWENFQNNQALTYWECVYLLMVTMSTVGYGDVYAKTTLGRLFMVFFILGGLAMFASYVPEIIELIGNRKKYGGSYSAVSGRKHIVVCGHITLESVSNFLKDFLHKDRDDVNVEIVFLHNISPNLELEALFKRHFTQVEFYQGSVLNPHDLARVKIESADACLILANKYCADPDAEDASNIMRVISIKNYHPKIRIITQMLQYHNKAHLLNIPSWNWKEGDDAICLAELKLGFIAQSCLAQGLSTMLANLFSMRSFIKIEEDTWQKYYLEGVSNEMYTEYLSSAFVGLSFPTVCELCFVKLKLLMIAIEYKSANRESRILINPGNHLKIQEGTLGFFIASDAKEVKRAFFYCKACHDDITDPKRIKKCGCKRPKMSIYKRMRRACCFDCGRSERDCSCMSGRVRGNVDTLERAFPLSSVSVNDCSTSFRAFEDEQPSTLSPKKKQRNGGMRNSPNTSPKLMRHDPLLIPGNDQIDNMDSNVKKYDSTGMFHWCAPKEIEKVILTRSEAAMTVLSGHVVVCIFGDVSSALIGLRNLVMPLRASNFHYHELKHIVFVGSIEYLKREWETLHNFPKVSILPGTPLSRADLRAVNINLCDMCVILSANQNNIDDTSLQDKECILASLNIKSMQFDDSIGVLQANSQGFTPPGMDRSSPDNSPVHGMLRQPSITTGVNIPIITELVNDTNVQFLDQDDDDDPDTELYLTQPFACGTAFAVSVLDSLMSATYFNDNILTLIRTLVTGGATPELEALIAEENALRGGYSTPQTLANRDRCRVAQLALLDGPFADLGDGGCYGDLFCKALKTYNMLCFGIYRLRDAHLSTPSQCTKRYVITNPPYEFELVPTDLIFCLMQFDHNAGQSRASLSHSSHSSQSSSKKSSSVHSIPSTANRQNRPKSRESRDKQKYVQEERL
T2 sequence (Q16558 whole entry partner): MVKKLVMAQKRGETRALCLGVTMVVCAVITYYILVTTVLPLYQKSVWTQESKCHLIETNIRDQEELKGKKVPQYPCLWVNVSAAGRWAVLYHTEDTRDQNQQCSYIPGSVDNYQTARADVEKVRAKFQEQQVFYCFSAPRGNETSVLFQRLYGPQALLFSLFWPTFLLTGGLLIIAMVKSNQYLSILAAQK

T1 sequence (Q12791 whole entry): as the sequence (Q12791 whole entry) above
T1 sequence (Q16558 whole entry partner): as the sequence (Q16558 whole entry partner) above

Compound | inhibition of the control signal ([1]; 3 µM Compound A present in all wells, increasing concentrations of compound, Figure 4) | block of the signal generated by addition of a high-potassium solution ([1]; compound alone, no endogenous conductance blocker, Figure 3) | inhibition of the signal generated by addition of a high-potassium solution ([1]; in the presence of Compound A, Figure 3) | effect on the fluorescence signal caused by high-potassium addition [2] | effect on control signal (maxi-K channel activity) [3] | efficacy of Compound A or Compound B in the presence of Compound 1 [2] | effect on the magnitude of the signal caused by addition of high-potassium solution ([1]; Compound A alone, Figure 3)
COc1ccc2c(c1)c(CC(=O)N(C(=O)NC1CCCCC1)C1CCCCC1)c(C)n2C(=O)c1ccc(Cl)cc1 [Compound 1] | concentration-dependent inhibition of the control signal | only partially blocks the signal | complete inhibition of the signal | not affected | completely inhibits the control signal |  | 
COc1ccccc1C(=O)NCC1(c2ccccc2)CCC(=O)CC1 [Compound B] |  |  |  | concentration-dependent inhibition of the fluorescence signal |  | unaffected | 
CCCNC(=O)OC1CCC(CNC(=O)c2ccccc2OC)(c2ccccc2)CC1 (stereo not shown) [Compound A] |  |  |  | concentration-dependent inhibition of the fluorescence signal |  | unaffected | no significant effect on the magnitude of the signal
